Assay results from ChEMBL document CHEMBL1145541 (J Med Chem, 2008).

How the values were obtained:
[1] = target: T1, Type-1 angiotensin II receptor A (Rattus norvegicus, UniProt P25095); assay: Displacement of [125I]Sar1,Ile8-Ang2 from AT1 receptor in Wistar rat hepatic membrane; type: cell membranes, Liver
T1 sequence (P25095 whole entry): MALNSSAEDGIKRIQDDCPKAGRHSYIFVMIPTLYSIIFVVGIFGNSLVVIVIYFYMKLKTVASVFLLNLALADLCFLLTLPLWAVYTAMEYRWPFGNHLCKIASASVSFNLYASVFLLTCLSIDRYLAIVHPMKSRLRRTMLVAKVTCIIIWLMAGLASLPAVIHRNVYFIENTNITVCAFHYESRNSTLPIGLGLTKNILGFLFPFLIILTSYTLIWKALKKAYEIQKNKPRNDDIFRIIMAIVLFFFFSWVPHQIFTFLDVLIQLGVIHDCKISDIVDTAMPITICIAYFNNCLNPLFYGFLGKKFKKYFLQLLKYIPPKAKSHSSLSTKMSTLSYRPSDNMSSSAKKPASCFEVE

[2] = Tmax in Sprague-Dawley rat at 15 mg/kg, po; type: ADME, organism-based; set-up: dose 15 mg/kg, route oral; conditions: in vivo
[3] = target: T2, Type-1 angiotensin II receptor (Oryctolagus cuniculus, UniProt P34976); assay: Antagonist activity at AT1 receptor in Ang II-contracted rabbit aortic strips after 60 mins; conditions: read-out: pA2 (converted)
T2 sequence (P34976 whole entry): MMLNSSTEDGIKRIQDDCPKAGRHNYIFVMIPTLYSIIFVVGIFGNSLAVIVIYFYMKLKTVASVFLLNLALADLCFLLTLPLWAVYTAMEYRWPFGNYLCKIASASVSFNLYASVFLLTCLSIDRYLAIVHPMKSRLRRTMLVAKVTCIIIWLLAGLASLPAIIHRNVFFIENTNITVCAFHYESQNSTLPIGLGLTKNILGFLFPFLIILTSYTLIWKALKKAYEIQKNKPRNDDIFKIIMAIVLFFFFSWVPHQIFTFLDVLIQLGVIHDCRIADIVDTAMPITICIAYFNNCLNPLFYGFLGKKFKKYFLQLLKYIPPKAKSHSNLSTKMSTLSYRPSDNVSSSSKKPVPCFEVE

[4] = Half life in Sprague-Dawley rat at 15 mg/kg, po; type: ADME, organism-based; set-up: dose 15 mg/kg, route oral; conditions: in vivo
[5] = Cmax in Sprague-Dawley rat at 15 mg/kg, po; type: ADME, organism-based; set-up: dose 15 mg/kg, route oral; conditions: in vivo
[6] = Oral bioavailability in Sprague-Dawley rat at 15 mg/kg; type: ADME, organism-based; conditions: in vivo
[7] = in vitro; conditions: human, Caco-2
Description: Permeability from apical to basolateral side of human Caco-2 cell membrane

[8] = Half life in Sprague-Dawley rat at 5 mg/kg, iv; type: ADME, organism-based; set-up: dose 5 mg/kg, route intravenous; conditions: in vivo
[9] = AUC in Sprague-Dawley rat at 15 mg/kg, po; type: ADME, organism-based; set-up: dose 15 mg/kg, route oral; conditions: plasma
[10] = Cmax in Sprague-Dawley rat at 5 mg/kg, iv; type: ADME, organism-based; set-up: dose 5 mg/kg, route intravenous; conditions: in vivo
[11] = AUC in Sprague-Dawley rat at 5 mg/kg, iv; type: ADME, organism-based; set-up: dose 5 mg/kg, route intravenous; conditions: plasma

| Compound | IC50 [1] [nM] | also measured |
| --- | --- | --- |
| CCCCN1C(=O)C2(CCCC2)CC(=O)N1Cc1ccc(-c2ccccc2-c2nnn[nH]2)cc1 | – | Ki [1]: 80 nM |
| O=c1c2cccnc2n(Cc2ccc(-c3ccccc3-c3nn[nH]n3)cc2)n1Cc1ccccc1 | > 3000 | – |
| CCCCCn1c(=O)c2cccnc2n1Cc1ccc(-c2ccccc2-c2nnn[nH]2)cc1 | 53 | – |
| CCCn1nc(OCc2ccc(-c3ccccc3-c3nnn[nH]3)cc2)c2cccnc21 | 146 | – |
| CCCCn1c(=O)c2cccnc2n1Cc1ccc(-c2ccccc2-c2nn[nH]n2)cc1 | 18 | Tmax [2]: 30 min; Kb [3]: 10.5 nM; half-life [4]: 54 min; Cmax [5]: 4100 ng/mL; bioavailability [6]: 80%; Papp A→B [7]: 1.78 ×10⁻⁶ cm/s; half-life [8]: 60 min; AUC [9]: 3380 ng·h/mL; Cmax [10]: 6320 ng/mL; AUC [11]: 1410 ng·h/mL |
| CC(C)Cn1c(=O)c2cccnc2n1Cc1ccc(-c2ccccc2-c2nn[nH]n2)cc1 | 2300 | – |
| CCCCn1c2ncccc2c(=O)n1Cc1ccc(-c2ccccc2-c2nnn[nH]2)cc1 | 39 | Kb [3]: 14.8 nM; Papp A→B [7]: 3.6 ×10⁻⁶ cm/s |
| CCC1c2ncccc2C(=O)N1Cc1ccc(-c2ccccc2-c2nn[nH]n2)cc1 (centres undefined) | > 10000 | – |
| CCCCn1c(=O)c2cc(F)c(Cl)nc2n1Cc1ccc(-c2ccccc2-c2nnn[nH]2)cc1 | 427 | – |
| CCCCn1nc(OCc2ccc(-c3ccccc3-c3nn[nH]n3)cc2)c2cccnc2c1=O | 114 | – |
| CCCC1c2ncccc2C(=O)N1Cc1ccc(-c2ccccc2-c2nn[nH]n2)cc1 (centres undefined) | 154 | – |
| CC(C)CCn1c(=O)c2cccnc2n1Cc1ccc(-c2ccccc2-c2nnn[nH]2)cc1 | 124 | – |
| CCCCn1c(=O)c2cc(Cl)cnc2n1Cc1ccc(-c2ccccc2-c2nnn[nH]2)cc1 | 76 | Papp A→B [7]: 10.8 ×10⁻⁶ cm/s |
| O=C1c2cccnc2CN1Cc1ccc(-c2ccccc2-c2nn[nH]n2)cc1 | > 10000 | – |
| CCCCn1c2nc(C)ccc2c(=O)n1Cc1ccc(-c2ccccc2-c2nn[nH]n2)cc1 | 90 | Papp A→B [7]: 8.7 ×10⁻⁶ cm/s |
| CCCn1c(=O)c2ccc(C)nc2n1Cc1ccc(-c2ccccc2-c2nnn[nH]2)cc1 | 291 | – |
| CCn1c(=O)c2ccc(C)nc2n1Cc1ccc(-c2ccccc2-c2nnn[nH]2)cc1 | 1870 | – |

| Compound | IC50 [1] [nM] | also measured |
| --- | --- | --- |
| CCCCn1c(=O)c2ccc(NC)nc2n1Cc1ccc(-c2ccccc2-c2nn[nH]n2)cc1 | 124 | – |
| CCCc1nc2c(C)cc(C)nc2n1Cc1ccc(-c2ccccc2-c2nn[nH]n2)cc1 | 0.8 | – |
| CCCCN1C(=O)C2(CCCC2)C(=O)N1Cc1ccc(-c2ccccc2-c2nn[nH]n2)cc1 | – | Ki [1]: 25 nM |
| CCCCN1C(=O)CC2(CCCC2)C(=O)N1Cc1ccc(-c2ccccc2-c2nn[nH]n2)cc1 | – | Ki [1]: 14 nM |
| CCCN1C(=O)c2cccnc2C1Cc1ccc(-c2ccccc2-c2nn[nH]n2)cc1 (centres undefined) | > 3000 | – |
| CCCCn1c(=O)c2cc(F)cnc2n1Cc1ccc(-c2ccccc2-c2nnn[nH]2)cc1 | 70 | – |
| CCCCn1c(=O)c2ccc(Cl)nc2n1Cc1ccc(-c2ccccc2-c2nnn[nH]2)cc1 | 168 | – |
| CCCCn1c(=O)c2ccc(OC)nc2n1Cc1ccc(-c2ccccc2-c2nnn[nH]2)cc1 | 258 | – |
| CCCCn1nc(OCc2ccc(-c3ccccc3-c3nnn[nH]3)cc2)c2cccnc21 | 254 | – |
| CCCn1c(=O)c2cccnc2n1Cc1ccc(-c2ccccc2-c2nnn[nH]2)cc1 | 108 | – |
| CCCCn1c(=O)c2ccc(C)nc2n1Cc1ccc(-c2ccccc2-c2nnn[nH]2)cc1 | 81 | – |
| CCCCn1c(=O)c2ccccc2n1Cc1ccc(-c2ccccc2-c2nnn[nH]2)cc1 | 598 | – |
| CCCCC1c2ncccc2C(=O)N1Cc1ccc(-c2ccccc2-c2nn[nH]n2)cc1 (centres undefined) | 95 | Papp A→B [7]: 5.6 ×10⁻⁶ cm/s |
| CCCCn1c2nc(Cl)ccc2c(=O)n1Cc1ccc(-c2ccccc2-c2nn[nH]n2)cc1 | 461 | – |
| CCCCn1c(=O)c2ccc(N3CCOCC3)nc2n1Cc1ccc(-c2ccccc2-c2nnn[nH]2)cc1 | 600 | – |
| CCc1nc2c(C)cc(C)nc2n1Cc1ccc(-c2c(-c3nnn[nH]3)cnc3ccccc23)cc1 | 6.9 | – |
| CCc1nc2c(C)cc(C)nc2n1Cc1ccc(-c2ccccc2-c2nnn[nH]2)cc1 [L-158809] | 0.4 | – |
